Reference: patent US11090246B2, “Powder hair dye composition” (KAO CORPORATION, priority 2017, dated 2021)

Experiment: pKa and color of the azo dyes on dissociation of a proton
Type: physicochemical
Description: Therefore, because the components (B) and (C) coexist with the component (A) in the powder hair dye composition of the present invention, a proton of the component (A) is dissociated and a color of the composition becomes close to one after hair dyeing.

Row | SMILES | color assumed by dissociation of a proton
1 | CSc1nsc(/N=N/c2ccc(O)c(Cl)c2)n1 [(A-1), HC Blue 18] | red color
2 | NS(=O)(=O)c1ccc2nsc(/N=N/c3ccc(O)c(Cl)c3)c2c1 [(A-2), HC Red 18] | blue color
3 | Cn1nccc1/N=N/c1ccc(O)c(Cl)c1 [(A-3), HC Yellow 16] | yellow color
